Test results: patent US8354441B2, “Oxazoline derivatives” (Hoffmann-La Roche Inc., priority 2009, dated 2013)

What was measured:
mouse TAAR1 = molecular target: T1, mouse TAAR1 (Mus musculus, UniProt Q923Y8); experiment: TAAR1 radioligand binding with [3H]-rac-2-(1,2,3,4-tetrahydro-1-naphthyl)-2-imidazoline, membranes of stably transfected HEK293 cells; settings: first value of the cell, read-out: Ki (μM) mouse/rat: mouse
T1 construct: expressed in transfected cells; host or cells: HEK293 (ATCC # CRL-1573), stably transfected with pIRESneo2 expression plasmid
T1 sequence (Q923Y8 whole entry): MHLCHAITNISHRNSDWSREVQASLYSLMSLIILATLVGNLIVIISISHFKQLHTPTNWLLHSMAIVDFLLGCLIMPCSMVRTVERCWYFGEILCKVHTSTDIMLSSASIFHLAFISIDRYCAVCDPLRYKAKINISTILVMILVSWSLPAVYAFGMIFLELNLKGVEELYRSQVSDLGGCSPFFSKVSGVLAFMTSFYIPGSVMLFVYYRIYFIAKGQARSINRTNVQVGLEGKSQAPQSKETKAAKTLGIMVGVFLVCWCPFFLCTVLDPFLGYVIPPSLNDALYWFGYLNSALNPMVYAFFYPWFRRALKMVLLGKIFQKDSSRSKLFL
Procedure: (§1) For the construction of expression plasmids the coding sequences of human, rat and mouse TAAR 1 were amplified from genomic DNA essentially as described by Lindemann et al.. The Expand High Fidelity PCR System (Roche Diagnostics) was used with 1.5 mM Mg^2+ and purified PCR products were cloned into pCR2.1-TOPO cloning vector (Invitrogen) following the instructions of the manufacturer. PCR products were subcloned into the pIRESneo2 vector (BD Clontech, Palo Alto, Calif.), and expression vectors were sequence verified before introduction in cell lines.
(§2) HEK293 cells (ATCC # CRL-1573) were cultured essentially as described by Lindemann et al. (2005). For the generation of stably transfected cell lines HEK293 cells were transfected with the pIRESneo2 expression plasmids containing the TAAR coding sequences (described above) with Lipofectamine 2000 (Invitrogen) according to the instructions of the manufacturer, and 24 hrs post transfection the culture medium was supplemented with 1 mg/ml G418 (Sigma, Buchs, Switzerland). After a culture period of about 10 d clones were isolated, expanded and tested for responsiveness to trace amines (all compounds purchased from Sigma) with the cAMP Biotrak Enzyme immunoassay (EIA) System (Amersham) following the non-acetylation EIA procedure provided by the manufacturer.
(§3) Cells at confluence were rinsed with ice-cold phosphate buffered saline without Ca^2+ and Mg^2+ containing 10 mM EDTA and pelleted by centrifugation at 1000 rpm for 5 min at 4° C. The pellet was then washed twice with ice-cold phosphate buffered saline and the cell pellet was frozen immediately by immersion in liquid nitrogen and stored until use at −80° C. The cell pellet was then suspended in 20 ml HEPES-NaOH (20 mM), pH 7.4 containing 10 mM EDTA, and homogenized with a Polytron (PT 3000, Kinematica) at 10,000 rpm for 10 s. The homogenate was centrifuged at 48,000×g for 30 min at 4° C. and the pellet resuspended in 20 ml HEPES-NaOH (20 mM), pH 7.4 containing 0.1 mM EDTA (buffer A), and homogenized with a Polytron at 10,000 rpm for 10 s. The homogenate was then centrifuged at 48,000×g for 30 min at 4° C. and the pellet resuspended in 20 ml buffer A, and homogenized with a Polytron at 10,000 rpm for 10 s. Protein concentration was determined by the method of Pierce (Rockford, Ill.). The homogenate was then centrifuged at 48,000×g for 10 min at 4° C., resuspended in HEPES-NaOH (20 mM), pH 7.0 including MgCl2 (10 mM) and […] homogenized with a Polytron at 10,000 rpm for 10 s.
(§4) The binding assay was performed at 4° C. in a final volume of 1 ml, and with an incubation time of 30 min. The radioligand [^3H]-rac-2-(1,2,3,4-tetrahydro-1-naphthyl)-2-imidazoline was used at a concentration equal to the calculated Kd value of 60 nM to give a bound at around 0.1% of the total added radioligand concentration, and a specific binding which represented approximately 70-80% of the total binding. Non-specific binding was defined as the amount of [^3H]-rac-2-(1,2,3,4-tetrahydro-1-naphthyl)-2-imidazoline bound in the presence of the appropriate unlabelled ligand (10 μM). Competing ligands were tested in a wide range of concentrations (10 pM-30 μM). […] Each experiment was performed in duplicate. All incubations were terminated by rapid filtration through UniFilter-96 plates (Packard Instrument Company) and glass filter GF/C, pre-soaked for at least 2 h in polyethylenimine 0.3%, and using a Filtermate 96 Cell Harvester (Packard Instrument Company). The tubes and filters were then washed 3 times with 1 ml aliquots of cold buffer B. Filters were not dried and soaked in Ultima gold (45 μl/well, Packard Instrument Company) and bound radioactivity was counted by a TopCount Microplate Scintillation Counter (Packard Instrument Company).

rat TAAR1 = molecular target: T2, rat TAAR1 (Rattus norvegicus, UniProt Q923Y9); experiment: as above; settings: second value of the cell, read-out: Ki (μM) mouse/rat: rat
T2 construct: expressed in transfected cells; host or cells: HEK293 (ATCC # CRL-1573), stably transfected with pIRESneo2 expression plasmid
T2 sequence (Q923Y9 whole entry): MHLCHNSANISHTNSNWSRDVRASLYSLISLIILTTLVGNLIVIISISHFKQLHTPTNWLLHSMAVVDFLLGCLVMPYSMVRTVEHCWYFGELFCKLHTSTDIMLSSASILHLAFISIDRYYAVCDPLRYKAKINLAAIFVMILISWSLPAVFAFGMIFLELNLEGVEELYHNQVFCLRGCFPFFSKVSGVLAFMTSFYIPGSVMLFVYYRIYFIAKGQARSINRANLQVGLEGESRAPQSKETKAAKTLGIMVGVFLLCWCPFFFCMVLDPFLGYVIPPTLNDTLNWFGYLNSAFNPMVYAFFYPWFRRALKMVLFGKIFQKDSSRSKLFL
Procedure: as §1, §2, §3, §4

SMILES | Ki (mouse TAAR1) | Ki (rat TAAR1)
CCOc1ccc(C(=O)Nc2ccc(CC[C@H]3COC(N)=N3)cc2)cc1 [Example 60, N-{4-[2-((S)-2-Amino-4,5-dihydro-oxazol-4-yl)-ethyl]-phenyl}-4-ethoxy-benzamide] | 0.001 µM | 0.0006 µM
CC(C)c1cncc(C(=O)Nc2ccc(CC[C@H]3COC(N)=N3)cc2)n1 [Example 230, (S)-N-(4-(2-(2-Amino-4,5-dihydrooxazol-4-yl)ethyl)phenyl)-6-isopropylpyrazine-2-carboxamide] | 0.0009 µM | 0.0016 µM
NC1=N[C@@H](CCc2ccc(NC(=O)c3ccc(Br)cn3)cc2)CO1 [Example 92, 5-Bromo-pyridine-2-carboxylic acid {4-[2-((S)-2-amino-4,5-dihydro-oxazol-4-yl)-ethyl]-phenyl}-amide] | 0.0002 µM | 0.0004 µM
C[C@H]1OC(N)=N[C@H]1CCc1ccc(NC(=O)c2ccc(Cl)cc2)cc1 [Example 206, N-(4-(2-((4S,5R)-2-Amino-5-methyl-4,5-dihydrooxazol-4-yl)ethyl)phenyl)-4-chlorobenzamide] | 0.0076 µM | 0.0013 µM
NC1=N[C@@H](CCc2ccc(NC(=O)c3ccc4cccnc4n3)cc2)CO1 [Example 105, [1,8]Naphthyridine-2-carboxylic acid {4-[2-((S)-2-amino-4,5-dihydro-oxazol-4-yl)-ethyl]-phenyl}-amide] | 0.0051 µM | 0.0011 µM
NC1=N[C@@H](CCc2ccc(NC(=O)c3cnc(Cl)cn3)cc2)CO1 [Example 126, (S)-N-(4-(2-(2-Amino-4,5-dihydrooxazol-4-yl)ethyl)phenyl)-5-chloropyrazine-2-carboxamide] | 0.0007 µM | 0.002 µM
NC1=N[C@@H](CCc2ccc(NS(=O)(=O)c3ccc(Cl)c(Cl)c3)cc2)CO1 [Example 76, N-{4-[2-((S)-2-Amino-4,5-dihydro-oxazol-4-yl)-ethyl]-phenyl}-3,4-dichloro-benzenesulfonamide] | 0.009 µM | 0.0009 µM
CCCc1ccc(C(=O)Nc2ccc(CC[C@H]3COC(N)=N3)cc2)cc1 [Example 61, N-{4-[2-((S)-2-Amino-4,5-dihydro-oxazol-4-yl)-ethyl]-phenyl}-4-propyl-benzamide] | 0.0002 µM | 0.0007 µM
NC1=N[C@@H](CCc2ccc(NC(=O)C3CC(F)(F)C3)cc2)CO1 [Example 44, 3,3-Difluoro-cyclobutanecarboxylic acid {4-[2-((S)-2-amino-4,5-dihydro-oxazol-4-yl)-ethyl]-phenyl}-amide] | 0.0035 µM | 0.0014 µM
CCc1nc(OC)cc(C(=O)Nc2ccc(CC[C@H]3COC(N)=N3)cc2)n1 [Example 203, 2-Ethyl-6-methoxy-pyrimidine-4-carboxylic acid {4-[2-((S)-2-amino-4,5-dihydro-oxazol-4-yl)-ethyl]-phenyl}-amide] | 0.0008 µM | 0.0014 µM
NC1=N[C@@H](CCCc2ccc(NC(=O)c3ccc(Cl)cc3)cc2)CO1 [Example 8, N-{4-[3-((S)-2-Amino-4,5-dihydro-oxazol-4-yl)-propyl]-phenyl}-4-chloro-benzamide] | 0.0034 µM | 0.0001 µM
CC1(C(=O)Nc2ccc(CC[C@H]3COC(N)=N3)cc2)CC1 [Example 41, 1-Methyl-cyclopropanecarboxylic acid {4-[2-((S)-2-amino-4,5-dihydro-oxazol-4-yl)-ethyl]-phenyl}-amide] | 0.0091 µM | 0.0094 µM
NC1=N[C@@H](CCc2ccc(NC(=O)C3CC3)cc2)CO1 [Example 46, Cyclopropanecarboxylic acid {4-[2-((S)-2-amino-4,5-dihydro-oxazol-4-yl)-ethyl]-phenyl}-amide] | 0.0042 µM | 0.0018 µM
CC[C@@H](C[C@H]1COC(N)=N1)c1ccc(NC(=O)Nc2ccc(C(F)(F)F)cc2)cc1 [Example 13, 1-{4-[(S)-1-((S)-2-Amino-4,5-dihydro-oxazol-4-ylmethyl)-propyl]-phenyl}-3-(4-trifluoromethyl-phenyl)-urea] | 0.0007 µM | 0.0023 µM
C[C@@H]1OC(N)=N[C@H]1CCc1ccc(NC(=O)c2ccc(Cl)cc2)cc1 [Example 205, N-(4-(2-((4S,5S)-2-Amino-5-methyl-4,5-dihydrooxazol-4-yl)ethyl)phenyl)-4-chlorobenzamide] | 0.0007 µM | 0.0005 µM
NC1=N[C@@H](CCc2ccc(NC(=O)Nc3ccc(Cl)cc3)cc2)CO1 [Example 3, 1-{4-[2-((S)-2-Amino-4,5-dihydro-oxazol-4-yl)-ethyl]-phenyl}-3-(4-chloro-phenyl)-urea] | 0.0002 µM | 0.0003 µM
NC1=N[C@@H](CCc2ccc(NC(=O)Cc3ccc(Cl)cc3)cc2)CO1 [Example 70, N-{4-[2-((S)-2-Amino-4,5-dihydro-oxazol-4-yl)-ethyl]-phenyl}-2-(4-chloro-phenyl)-acetamide] | 0.001 µM | 0.001 µM
NC1=N[C@@H](CCc2ccc(NC(=O)c3cccc(Br)n3)cc2)CO1 [Example 112, 6-Bromo-pyridine-2-carboxylic acid {4-[2-((S)-2-amino-4,5-dihydro-oxazol-4-yl)-ethyl]-phenyl}-amide] | 0.0013 µM | 0.0005 µM
NC1=N[C@@H](CCc2ccc(NC(=O)Nc3ccc(Cl)nc3)cc2)CO1 [Example 38, 1-{4-[2-((S)-2-Amino-4,5-dihydro-oxazol-4-yl)-ethyl]-phenyl}-3-(6-chloro-pyridin-3-yl)-urea] | 0.0017 µM | 0.0004 µM
C#Cc1ccc(NC(=O)c2ccc(CC[C@H]3COC(N)=N3)cc2)cc1 [Example 145, (S)-4-(2-(2-amino-4,5-dihydrooxazol-4-yl)ethyl)-N-(4-ethynylphenyl)benzamide] | 0.0018 µM | 0.0001 µM
NC1=N[C@@H](CCc2ccc(NC(=O)Nc3ccc(Cl)cn3)cc2)CO1 [Example 35, 1-{4-[2-((S)-2-Amino-4,5-dihydro-oxazol-4-yl)-ethyl]-phenyl}-3-(5-chloro-pyridin-2-yl)-urea] | 0.0001 µM | 0.0003 µM
NC1=N[C@@H](CCc2ccc(NC(=O)c3cc(Cl)ccn3)cc2)CO1 [Example 90, 4-Chloro-pyridine-2-carboxylic acid {4-[2-((S)-2-amino-4,5-dihydro-oxazol-4-yl)-ethyl]-phenyl}-amide] | 0.0007 µM | 0.0003 µM
COC(C(=O)Nc1ccc(CC[C@H]2COC(N)=N2)cc1)c1ccc(Cl)cc1 (stereo partly drawn) [Example 78, N-{4-[2-((S)-2-Amino-4,5-dihydro-oxazol-4-yl)-ethyl]-phenyl}-2-(4-chloro-phenyl)-2-methoxy-acetamide] | 0.0048 µM | 0.0031 µM
NC1=N[C@@H](CCc2ccc(NC(=O)Nc3ccc(F)cc3)cc2)CO1 [Example 94, 1-{4-[2-((S)-2-Amino-4,5-dihydro-oxazol-4-yl)-ethyl]-phenyl}-3-(4-fluoro-phenyl)-urea] | 0.0003 µM | 0.0003 µM
Cc1ccc(C(=O)Nc2ccc(CC[C@H]3COC(N)=N3)cc2)s1 [Example 201, (S)-N-(4-(2-(2-Amino-4,5-dihydrooxazol-4-yl)ethyl)phenyl)-5-methylthiophene-2-carboxamide] | 0.0005 µM | 0.0007 µM
NC1=N[C@@H](CCc2ccc(NC(=O)c3ccc(Cl)nn3)cc2)CO1 [Example 122, (S)-N-(4-(2-(2-Amino-4,5-dihydrooxazol-4-yl)ethyl)phenyl)-6-chloropyridazine-3-carboxamide] | 0.0043 µM | 0.0043 µM
